Reference: paper PMC8070648, “Simultaneous Visualization of ^161Tb- and ^177Lu-Labeled Somatostatin Analogues Using Dual-Isotope SPECT Imaging” (Pharmaceutics, 2021)

What was measured:
[1] = n-octanol/PBS distribution coefficient (logD), shake-flask method; assay type: physicochemical; settings: PBS pH 7.4; average ± SD
Method: DOTA-[Tyr^3]-octreotide (DOTATOC) was kindly provided by ITM Medical Isotopes GmbH, Munich, Germany.
Figure S3. Graphs of bars representing the percentage of intact radiopeptide investigated at 1 h, 4 h, and 24 h after preparation and dilution in saline (10 MBq/250 μL). (A) Percentage of intact radiopeptide in solution in the absence of ascorbic acid; (B) Percentage of intact radiopeptide in solution in the presence of ascorbic acid.
S4. Determination of n‐Octanol/PBS Distribution Coefficients (LogD Values) Purpose: The n‐octanol/PBS distribution coefficients (logD values) were assessed for each radiopeptide in order to investigate their hydrophilicity and enable comparison of […]
DOTA‐LM3) were determined by a shake‐flask method, as previously reported. […] The logD values were calculated as the logarithm of the ratio of counts per minute (cpm) measured in the n‐octanol phase relative to the cpm measured in the PBS pH 7.4 phase. The experiments were performed three times with five replicates for each radiopeptide and the logD value was expressed as the average ± standard deviation (SD) of the values obtained in each experiment. […]
Methods: A potential blockade of the uptake of [161Tb]Tb‐DOTA‐LM3 into AR42J cells was determined in the presence of >1000‐fold excess unlabeled DOTANOC or DOTA‐LM3 relative to the radiopeptide using the same protocol as reported in the main article. […]

AR42J tumor-bearing mice = assay: Biodistribution in AR42J tumor-bearing nude mice; assay type: in vivo; settings: i.v. 5 MBq, 1 nmol/mouse
Excerpt: Five-week-old female CD-1 nude mice were purchased from Charles River Laboratories (Sulzfeld, Germany).

C[C@@H](O)[C@@H]1NC(=O)[C@H](CCCCN)NC(=O)[C@@H](Cc2c[nH]c3ccccc23)NC(=O)[C@H](Cc2ccc(O)cc2)NC(=O)[C@@H](NC(=O)[C@@H](Cc2ccccc2)NC(=O)CN2CCN(CC(=O)O)CCN(CC(=O)O)CCN(CC(=O)O)CC2)CSSC[C@@H](C(=O)N[C@H](CO)[C@@H](C)O)NC1=O [[^161Tb]Tb-DOTATOC] [metal not drawn]
logD value (n-octanol/PBS distribution coefficient) [1]: −3.3 ± 0.2

C[C@@H](O)[C@@H]1NC(=O)[C@H](CCCCN)NC(=O)[C@@H](Cc2c[nH]c3ccccc23)NC(=O)[C@H](Cc2ccc(O)cc2)NC(=O)[C@@H](NC(=O)[C@@H](Cc2ccccc2)NC(=O)CN2CCN(CC(=O)O)CCN(CC(=O)O)CCN(CC(=O)O)CC2)CSSC[C@@H](C(=O)N[C@H](CO)[C@@H](C)O)NC1=O [[^177Lu]Lu-DOTATOC] [metal not drawn, reference compound]
AR42J Tumor (AR42J tumor-bearing mice; 2 h p.i.): 8.9 ± 1.5 % IA/g | Adrenals (AR42J tumor-bearing mice; 2 h p.i.): 0.28 ± 0.08 % IA/g | Blood (AR42J tumor-bearing mice; 2 h p.i.): ≤ 0.10 % IA/g | Femur (AR42J tumor-bearing mice; 2 h p.i.): ≤ 0.10 % IA/g | Heart (AR42J tumor-bearing mice; 2 h p.i.): ≤ 0.10 % IA/g | Intestines (AR42J tumor-bearing mice; 2 h p.i.): 0.20 ± 0.05 % IA/g | Liver (AR42J tumor-bearing mice; 2 h p.i.): 0.26 ± 0.07 % IA/g | Lung (AR42J tumor-bearing mice; 2 h p.i.): 0.37 ± 0.06 % IA/g | Muscle (AR42J tumor-bearing mice; 2 h p.i.): ≤ 0.10 % IA/g | Pancreas (AR42J tumor-bearing mice; 2 h p.i.): 0.80 ± 0.13 % IA/g | Stomach (AR42J tumor-bearing mice; 2 h p.i.): 0.65 ± 0.11 % IA/g | Blood (AR42J tumor-bearing mice; 24 h p.i.): ≤ 0.10 % IA/g | Femur (AR42J tumor-bearing mice; 24 h p.i.): ≤ 0.10 % IA/g | Heart (AR42J tumor-bearing mice; 24 h p.i.): ≤ 0.10 % IA/g | Intestines (AR42J tumor-bearing mice; 24 h p.i.): ≤ 0.10 % IA/g | Kidneys (AR42J tumor-bearing mice; 24 h p.i.): 5.9 ± 2.1 % IA/g | Liver (AR42J tumor-bearing mice; 24 h p.i.): 0.13 ± 0.02 % IA/g | Muscle (AR42J tumor-bearing mice; 24 h p.i.): ≤ 0.10 % IA/g | Pancreas (AR42J tumor-bearing mice; 24 h p.i.): 0.21 ± 0.04 % IA/g | Spleen (AR42J tumor-bearing mice; 24 h p.i.): ≤ 0.10 % IA/g | logD value (n-octanol/PBS distribution coefficient) [1]: −3.1 ± 0.2
